# Read-outs that look alike come from different tables or passages of the source.
# Tests used:
# cytochrome P450 2C8 = target: T1, cytochrome P450 2C8 (Homo sapiens, UniProt P10632); assay: Inhibition of cytochrome P450 isoform activity in human liver microsomes; type: in vitro ADME; conditions: N/A: no inhibition, tested 0.0046–10 μM
# T1 construct: was investigated using human liver microsomes (XenoTech, USA); tissue XenoTech; host or cells: human liver microsomes
# T1 sequence (P10632 1-490): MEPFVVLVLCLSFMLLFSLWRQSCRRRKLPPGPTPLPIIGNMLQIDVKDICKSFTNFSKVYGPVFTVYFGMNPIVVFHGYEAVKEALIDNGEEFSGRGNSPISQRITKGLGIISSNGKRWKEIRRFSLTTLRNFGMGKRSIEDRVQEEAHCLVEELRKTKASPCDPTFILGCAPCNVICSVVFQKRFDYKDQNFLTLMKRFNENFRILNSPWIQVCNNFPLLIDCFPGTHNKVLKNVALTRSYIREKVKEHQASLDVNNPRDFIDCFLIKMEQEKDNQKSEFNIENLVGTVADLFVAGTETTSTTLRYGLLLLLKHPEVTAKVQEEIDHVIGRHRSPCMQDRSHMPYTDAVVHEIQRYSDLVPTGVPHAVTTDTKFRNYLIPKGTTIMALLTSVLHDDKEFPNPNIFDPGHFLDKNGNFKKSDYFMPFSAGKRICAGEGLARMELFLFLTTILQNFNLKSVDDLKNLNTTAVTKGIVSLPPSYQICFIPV
# Description: The effect of the tested compound on the activity of the main isoforms of human liver cytochrome P450 (1A2, 2C9, 2C19, 2D6, 3A4, 2C8) was investigated using human liver microsomes (XenoTech, USA) and their corresponding substrates: phenacetin, testosterone, tolbutamide, S-mephenytoin, dextromethorphan hydrobromide, and amodiaquine dihydrochloride dihydrate (Sigma-Aldrich, USA).
# […]. The reaction was stopped after 20 min by adding acetonitrile. The resulting metabolites were detected using UPLC–MS/MS. The calculation of the IC50 half-maximal inhibition concentration values was performed in the GraphPad Prism 6.0 (GraphPad Software Inc., USA) program, based on the equations of the experimental curves.
# [1] = Solubility in water by HPLC; type: physicochemical; conditions: water, kinetic from dmso stock
# Description: The solubility of the compounds in water was assessed using HPLC analysis. Two 1.0 mg portions of the test compounds were dissolved in 10 μL of dimethyl sulfoxide; 1.0 mL of acetonitrile was added to one sample (standard), and 1.0 mL of water was added to the second sample (tested sample). Both vials were mixed in a shaker for 5 min, then centrifuged at 10,000 rpm for 5 min. The supernatants were collected and analyzed using Agilent 1290 Infinity (Agilent Technologies, Santa Clara, CA, USA) with a YMC-Triart C18 50 × 2.0 mm, 1.9 μm column. The concentration of the test compound in water was determined by comparing the peak areas of the standard (concentration 1.0 mg/mL) and the tested sample.
# [2] = test system: HepG2 human liver carcinoma cells; assay: MTT cytotoxicity (hepatotoxicity) on HepG2; type: cell-based; conditions: Homo sapiens, HepG2, 24 h
# Description: (§1) The primary screening of 22 substances was performed on human embryonic fibroblasts (HEFs). […] The HepG2 cell line was obtained from the American Type Culture Collection (ATCC cat. # HB-8065). The primary HEF cells (normal human embryonic fibroblasts) were derived from human embryonic stem cells. The cells were cultured in DMEM/F12 (1:1) medium containing 10% fetal bovine serum (Invitrogen, Carlsbad, CA, USA) at 37 °C and 5% CO2, according to standard mammalian tissue culture protocols and sterile technique. […] The incubation time with the substance was 24 h for all substances and cell lines. Cell detachment by trypsin, centrifugation, and counting in a hemocytometer were performed 16 h before the addition of the substance. For correct counting of the HepG2 cells, the cell suspension was passed through a syringe needle to get rid of cell aggregates. The cells were placed in the wells of a 96-well plate. The number of cells was selected according to the properties of the cell line and the final optical density in the experiment. Fibroblasts and hepatocytes were used in the amount of 10 thousand cells per well in 100 μL of DMEM/F12 medium supplemented with 10% fetal bovine serum. The substances were added to 100 µL of medium in the wells so that the final concentrations were 50, 25, 12.5, 6.25, 3.125, and 1.62 mg/L. The final well volume was 200 µL. The medium containing fetal bovine serum, without added substances, was used as a negative control. After 24 h, excessive amounts of medium were discarded. A total of 30 µL of MTT solution (5 mg/mL in PBS) was added to each well. After the precipitation of formazan crystals (3 h incubation), they were dissolved using 100 μL of dimethyl sulfoxide. The optical density (OD) was measured at 570 nm using a microplate reader (Eppendorf). For every condition, the cell viabilities were assessed in at least three independent experiments for every cell culture. Cell survival was calculated using the following formula:(OD of treated cells − OD blank)/(OD of control cells − OD blank) × 100%, where OD blank represents the OD values in wells without cells but with the addition of the MTT and DMSO solutions. The results were presented in the form of cytotoxicity curves, and the graphs were also plotted in a Microsoft Excel program; the calculation of the IC50 half-maximal inhibition concentration values was performed in a GraphPad Prism 6.0 (GraphPad Software Inc., San Diego, CA, USA) program, based on the equations of the cytotoxicity curves.
# [3] = test system: human embryonic fibroblasts (HEFs); assay: MTT cytotoxicity on human embryonic fibroblasts; type: cell-based; conditions: Homo sapiens, Fibroblast, 24 h, ND = non-toxic in tested concentrations (up to 50 mg/L)
# Description: as §1
# MRSA = assay: Selectivity index (average IC50 on eukaryotic cells / average MIC on MRSA); type: cell-based, Staphylococcus aureus; conditions: average IC50 on eukaryotic cells divided by average MIC on MRSA
# Description: The selectivity index was calculated for each compound as the average IC50 on eukaryotic cells divided by the average MIC on MRSA (Table 2).
# MRSA clinical isolates = assay: MIC by broth microdilution against multidrug-resistant MRSA clinical isolates; type: cell-based, Staphylococcus aureus; conditions: for MIC: Staphylococcus aureus, MRSA, read-out: MIC against 8 MRSA strains
# Method in brief: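 Multidrug-resistant clinical MRSA isolates, 1 × 10^6 CFU/mL suspension in Mueller Hinton broth, broth microdilution with compounds at final 1, 0.5, 0.25 and 0.125 mg/L. Incubated 18 h at 37 °C; MIC taken as lowest concentration with no visible growth, triplicate.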
SMILES,IC50 (cytochrome P450 2C8) [µM],"solubility at 5 min ([1]; read-out: Solubility in water, mass concentration) [µg/mL]","solubility at 5 min ([1]; read-out: Solubility in water, molar concentration) [µM]",IC50 [2] [µg/mL],IC50 [3] [µg/mL],Selectivity Index (MRSA),"MIC Range Against 8 MRSA Strains (MRSA clinical isolates; 8 multidrug-resistant MRSA clinical isolates, tested 0.125-1 mg/L) [µg/mL]","MIC (MRSA clinical isolates; Figure 6, MRSA strain 2) [µg/mL]","MIC (MRSA clinical isolates; Figure 6, MRSA strain 7) [µg/mL]","MIC (MRSA clinical isolates; Figure 6, MRSA strain 8) [µg/mL]","MIC (MRSA clinical isolates; Figure 6, MRSA strain 9) [µg/mL]","MIC (MRSA clinical isolates; Figure 6, MRSA strain 13) [µg/mL]","MIC (MRSA clinical isolates; Figure 6, MRSA strain 21) [µg/mL]","MIC (MRSA clinical isolates; Figure 6, MRSA strain 48) [µg/mL]","MIC (MRSA clinical isolates; Figure 6, MRSA strain 50) [µg/mL]"
"O=c1c(O)c(-c2ccc(O)c(O)c2)oc2cc(O)cc(O)c12 [Quercetin, quercetin]",2.6,–,–,–,–,–,–,–,–,–,–,–,–,–,–
"CCOC(=O)c1[nH]c2cc(F)ccc2c1/N=N/N(C)CCc1ccccn1 [BX-SI048, Ethyl (E)-6-fluoro-3-(3-methyl-3-(2-(pyridin-2-yl)ethyl)triaz-1-en-1-yl)-1H-indole-2-carboxylate]",–,34.9,90,22,13,28,0.5 to 1,1,0.5,0.5,1,0.5,0.5,0.5,0.5

# — publication PMC11899342, “Novel Triazeneindole Antibiotics: Synthesis and Hit-to-Lead Optimization” (International Journal of Molecular Sciences, 2025)
